The data set in a line: solubility in aqueous media. In kind it is physicochemical. The conditions noted are these: qualitative statement.

Each structure is given as a SMILES string.

Turning to `O.O=C(Nc1ccccc1F)NC1N=C(c2ccccc2)c2ccccc2NC1=O.O=S(=O)(O)c1ccccc1` (centres unmarked) [RSV604 Besylate Monohydrate Salt, 1-(2-Fluoro-phenyl)-3-(2-oxo-5-phenyl-2,3-dihydro-1H-benzo[e][1,4]diazepin-3-yl)-urea besylate monohydrate], the “solubility in aqueous media” value is “particularly good solubility properties”.
The value for `O=C(Nc1ccccc1F)NC1N=C(c2ccccc2)c2ccccc2NC1=O` (centres unmarked) [RSV604 free base, 1-(2-Fluoro-phenyl)-3-(2-oxo-5-phenyl-2,3-dihydro-1H-benzo[e][1,4]diazepin-3-yl)-urea] was “low solubility”.

(Values after patent US7977330B2, “Salts and crystal modifications thereof” (Novartis AG, priority 2006, dated 2011).)
